Source: patent US20260042755A1, “GPR6 INVERSE AGONISTS” (MapLight Therapeutics, Inc., priority 2022, published 2026)

Legend:
Type in all cases: cell-based
hERG = molecular target: T1, hERG (Homo sapiens, UniProt Q12809); test: hERG assay (whole-cell manual patch clamp, stably-transfected HEK293/hERG cells); settings: tail current, test concentrations 0.1-30 μM, read-out: hERG Assay GMean IC50
T1 construct: expressed in transfected cells; host or cells: HEK293
Procedure: Stably-transfected HEK293/hERG cells were seeded on poly-ornithine coated glass coverslip and incubated 3-24 h in 35 mm dishes before transferring to the recording chamber. The recording chamber on the stage of a Nikon inverted microscope is continuously perfused with extracellular solution (1-1.5 ml/min). Electrodes were pulled, polished and filled with intracellular solution (tip resistance ˜3-5MΩ). After establishing a tight seal (resistances 1GΩ) between pipette tip and cell membrane, a brief suction is applied to rupture the patched membrane to establish the whole-cell patch clamp configuration. Cells are voltage clamped at −80 mV. The cell was first depolarized to +40 mV for 2s to activate hERG current, and then clamped to −40 mV for 3s to record a tail current. Test articles in various concentrations controlled by a voltage command 8 pinch valve superfusion system were delivered to the proximity of the test cell to record hERG current changes under different conditions with recording done within 30 min.
Intracellular solution (in mM): 130 KCl, 1.0 MgCl2, 5.0 EGTA, 10 HEPES, 5.0 Mg-ATP; adjust pH to 7.25 with 1M KOH; osmolarity approximately at 280 mOsm. Extracellular solution (in mM): 137 NaCl, 1.8 CaCl2, 1.0 MgCl2, 4.0 KCl, 10 Glucose, 10 HEPES; adjust pH to 7.4 with 1 M NaOH; osmolarity approximately at 295 mOsm. Original compound was dissolved in 100% DMSO, then serial diluted with DMSO to respective 1000× of test concentration to make DMSO sub-stocks. The DMSO sub-stocks were diluted 1000 fold to testing solutions (0.1, 0.3, 1, 3, 10, and 30 μM) using extracellular solution. Rapid exposure to test compound was achieved by utilizing a multichannel solenoid-operated flow system. Testing compounds were sequentially applied in increasing order of concentrations after initial application of vehicle solution on EPC-10 manual patch clamping device with the following: • Amplifier: HEKA EPC-10 USB • Nikon Ti-S Inverted Microscope • MP-285/R micromanipulator system • DAD-8VCPP voltage command Pinch valve superfusion system • TMC Shock Absorption Platform • Peristaltic Pump • Sutter Puller • Vapor pressure osmometer • Temperature controller

GPR6 = molecular target: T2, GPR6 (Homo sapiens, UniProt P46095); test: GPR6 antagonist functional cAMP assay (LANCE Ultra cAMP TR-FRET, CHO cells stably expressing GPR6)
T2 construct: expressed in transfected cells; host or cells: CHO cells
T2 sequence (P46095 whole entry): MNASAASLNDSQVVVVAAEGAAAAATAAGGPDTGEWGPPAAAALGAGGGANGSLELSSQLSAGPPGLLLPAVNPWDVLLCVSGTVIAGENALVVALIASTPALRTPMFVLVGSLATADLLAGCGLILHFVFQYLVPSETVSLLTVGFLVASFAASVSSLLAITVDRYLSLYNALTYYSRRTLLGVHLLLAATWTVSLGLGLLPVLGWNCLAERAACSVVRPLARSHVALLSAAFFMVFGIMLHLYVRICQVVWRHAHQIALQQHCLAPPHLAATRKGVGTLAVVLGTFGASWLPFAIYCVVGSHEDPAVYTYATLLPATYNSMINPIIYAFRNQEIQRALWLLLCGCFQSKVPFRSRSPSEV
In short: (§1)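 Suspended cells were plated at 10,000 per well in Krebs-Ringer bicarbonate buffer containing 0.1% BSA and 150 μM Ro 20-1724, then treated with compounds for 45 min at 37 °C. Intracellular cAMP was then quantified by TR-FRET immunoassay.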

GPR3 = molecular target: T3, GPR3 (Homo sapiens, UniProt P46089); test: GPR3 antagonist functional cAMP assay (LANCE Ultra cAMP TR-FRET, CHO cells stably expressing GPR3)
T3 construct: expressed in transfected cells; host or cells: CHO cells
T3 sequence (P46089 whole entry, species assumed): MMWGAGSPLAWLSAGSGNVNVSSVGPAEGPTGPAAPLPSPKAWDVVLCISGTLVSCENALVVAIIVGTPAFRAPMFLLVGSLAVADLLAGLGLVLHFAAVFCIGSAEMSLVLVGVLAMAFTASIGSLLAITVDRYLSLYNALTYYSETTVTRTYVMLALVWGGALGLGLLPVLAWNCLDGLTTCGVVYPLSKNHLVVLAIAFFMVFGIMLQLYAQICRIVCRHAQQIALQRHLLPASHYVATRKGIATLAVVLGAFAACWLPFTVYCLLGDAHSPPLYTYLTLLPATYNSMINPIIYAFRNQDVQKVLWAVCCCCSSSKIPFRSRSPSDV
In short: as §1

[1] = CHO cells stably expressing GPR6, cAMP assay
[2] = CHO cells stably expressing GPR3, cAMP assay
[3] = procedure as described in Example 24
[4] = CHO cells stably expressing GPR6, cAMP assay (Example 24)
[5] = CHO cells stably expressing GPR3, cAMP assay (Example 24)

T1 sequence (Q12809 whole entry): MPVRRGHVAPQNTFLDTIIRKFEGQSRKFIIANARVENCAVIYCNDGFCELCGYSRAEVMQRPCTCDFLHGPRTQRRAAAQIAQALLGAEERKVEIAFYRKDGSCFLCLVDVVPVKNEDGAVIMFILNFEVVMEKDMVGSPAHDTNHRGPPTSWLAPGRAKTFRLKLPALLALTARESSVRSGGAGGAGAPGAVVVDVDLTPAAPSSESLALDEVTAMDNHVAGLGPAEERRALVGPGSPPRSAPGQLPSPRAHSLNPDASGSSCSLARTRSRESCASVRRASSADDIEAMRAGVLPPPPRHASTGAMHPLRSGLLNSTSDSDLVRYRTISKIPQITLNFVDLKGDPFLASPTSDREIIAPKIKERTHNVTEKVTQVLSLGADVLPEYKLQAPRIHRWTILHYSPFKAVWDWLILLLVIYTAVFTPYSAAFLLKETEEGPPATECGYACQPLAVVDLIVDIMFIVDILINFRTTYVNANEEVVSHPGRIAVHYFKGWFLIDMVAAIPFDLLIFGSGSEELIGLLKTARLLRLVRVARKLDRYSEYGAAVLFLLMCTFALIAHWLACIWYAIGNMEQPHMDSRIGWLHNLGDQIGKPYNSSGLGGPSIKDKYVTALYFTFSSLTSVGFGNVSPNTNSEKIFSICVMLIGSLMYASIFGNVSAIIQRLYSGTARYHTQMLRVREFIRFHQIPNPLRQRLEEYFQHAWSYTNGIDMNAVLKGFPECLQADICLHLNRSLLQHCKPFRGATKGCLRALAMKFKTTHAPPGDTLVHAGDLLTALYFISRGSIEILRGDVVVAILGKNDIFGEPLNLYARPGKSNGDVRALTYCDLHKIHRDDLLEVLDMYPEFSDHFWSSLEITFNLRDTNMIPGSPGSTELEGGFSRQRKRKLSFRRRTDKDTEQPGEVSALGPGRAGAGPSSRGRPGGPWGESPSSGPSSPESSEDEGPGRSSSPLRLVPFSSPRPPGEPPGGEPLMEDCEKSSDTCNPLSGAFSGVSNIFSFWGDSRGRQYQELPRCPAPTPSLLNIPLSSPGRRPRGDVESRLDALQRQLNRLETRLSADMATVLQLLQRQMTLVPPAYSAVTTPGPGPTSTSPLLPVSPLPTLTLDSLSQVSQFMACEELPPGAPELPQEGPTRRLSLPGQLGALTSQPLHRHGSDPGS

Q: With CCn1cc(-c2nc3cnc([C@H](O)C(C)(C)O)cc3nc2N2CCN(Cc3ccc(F)cc3F)CC2)cn1 (single isomer, unassigned) [Compound 575] as the compound, how does the IC50 (hERG) read?
A: 21.7 µM

Q: And the IC50 (GPR6; [1])?
A: < 0.1 µM

Q: And the IC50 (GPR3; [2])?
A: 1 to 30 µM

Q: How did the IC50 (hERG) turn out when CC(C)(O)[C@](C)(O)c1cc2nc(-c3cnn(CF)c3)c(N3CCN(Cc4ccccc4F)CC3)nc2cn1 (single isomer, unassigned) [Compound 716] was run?
A: 24.3 µM

Q: And the IC50 (GPR6; procedure of Example 24)?
A: 0.1 to 1 µM

Q: And the IC50 (GPR3; procedure of Example 24)?
A: 1 to 30 µM

Q: CC(C)(O)[C@@H](O)c1cc2nc(N3CCN(Cc4ccc(F)cc4F)CC3)c(-c3cnn(C4CC4)c3)nc2cn1 (single isomer, unassigned) [Compound 577] was tested. Which IC50 (hERG) did it give?
A: 13.6 µM

Q: What about the IC50 (GPR6; [1]) of the same compound?
A: 0.1 to 1 µM

Q: And the IC50 (GPR3; [2])?
A: 1 to 30 µM

Q: Which IC50 (GPR6; [1]) does the source give for COC[C@H]1C[C@@H]1c1nc2c(nc1N1CCC(Oc3ccc(F)cc3F)CC1)CCN(C(C)=O)C2 [Compound 546, 1-{3-[(1S,2S)-2-(methoxymethyl)cyclopropyl]-2-[4-(2,4-difluorophenoxy)-1-piperidyl]-5,6,7,8-tetrahydro-1,4,6-triaza-6-naphthyl}-1-ethanone] here?
A: < 0.1 µM

Q: And the IC50 (GPR3; [2])?
A: 1 to 30 µM

Q: What does the source list for CCn1cc(-c2nc3c(nc2N2CCC(Oc4ccc(F)cc4F)CC2)CCN(S(=O)(=O)CC)C3)cn1 [Compound 267, 4-(2,4-difluorophenoxy)-1-[6-(ethanesulfonyl)-3-(1-ethyl-1H-pyrazol-4-yl)-5H,6H,7H,8H-pyrido[3,4-b]pyrazin-2-yl]piperidine]?
A: IC50 (GPR6; procedure of Example 24): 0.1 to 1 µM; IC50 (GPR3; procedure of Example 24): 1 to 30 µM

Q: Which results are given for CCn1cc(-c2nc3cnc([C@@](C)(O)C(C)(C)O)cc3nc2N2CCN(Cc3ccc(F)cc3F)CC2)cn1 (single isomer, unassigned) [Compound 690]?
A: IC50 (GPR6; procedure of Example 24): 0.1 to 1 µM; IC50 (GPR3; procedure of Example 24): 1 to 30 µM

Q: For CC(C)(O)C(O)c1cc2nc(-c3cnn(CF)c3)c(N3CCN(Cc4ccccc4F)CC3)nc2cn1 (single isomer, unassigned) [Compound 707], which IC50 (hERG) is on record?
A: > 30 µM

Q: And the IC50 (GPR6; procedure of Example 24)?
A: 0.1 to 1 µM

Q: What about the IC50 (GPR3; procedure of Example 24) of the same compound?
A: 1 to 30 µM

Q: Which IC50 (GPR6; [1]) does the source give for CC(=O)N1CCc2nc(N3CCN(Cc4ccco4)CC3)c(-c3cnn(C)c3)nc2C1 [Compound 537, 1-[2-(4-furfuryl-1-piperazinyl)-3-(1-methyl-4-pyrazolyl)-5,6,7,8-tetrahydro-1,4,6-triaza-6-naphthyl]-1-ethanone] here?
A: 1 to 30 µM

Q: And the IC50 (GPR3; [2])?
A: 1 to 30 µM

Q: Which results are given for CC(C)(O)C(O)c1cc2nc(-c3cnn(C(F)F)c3)c(N3CCN(Cc4ccc(F)cc4F)CC3)nc2cn1 (single isomer, unassigned) [Compound 586]?
A: IC50 (GPR6; [1]): < 0.1 µM; IC50 (GPR3; [2]): 0.1 to 1 µM

Q: How did the IC50 (GPR6; procedure of Example 24) turn out when CCOc1ccc(CN2CCN(c3nc4c(nc3-c3cnn(C)c3)CN(C(C)=O)CC4)CC2)c(F)c1 [Compound 362, 1-(2-{4-[(4-ethoxy-2-fluorophenyl)methyl]piperazin-1-yl}-3-(1-methyl-1H-pyrazol-4-yl)-5H,6H,7H,8H-pyrido[3,4-b]pyrazin-6-yl)ethan-1-one] was run?
A: 1 to 30 µM

Q: What about the IC50 (GPR3; procedure of Example 24) of the same compound?
A: 1 to 30 µM

Q: How did the IC50 (GPR6; [3]) turn out when CC(=O)N1CCc2nc(N3CCC(Oc4ccc(F)cc4F)CC3)c(-c3ccn[nH]3)nc2C1 [Compound 11, 1-{2-[4-(2,4-difluorophenoxy)piperidin-1-yl]-3-(1H-pyrazol-5-yl)-5H,6H,7H,8H-pyrido[3,4-b]pyrazin-6-yl}ethan-1-one] was run?
A: 1 to 30 µM

Q: And the IC50 (GPR3; [3])?
A: 1 to 30 µM

Q: What does the source list for CC(=O)N1CCc2nc(N3CCN(Cc4cc(Cl)ccc4Cl)CC3)c(-c3cnn(C)c3)nc2C1 [Compound 281, 1-(2-{4-[(2,5-dichlorophenyl)methyl]piperazin-1-yl}-3-(1-methyl-1H-pyrazol-4-yl)-5H,6H,7H,8H-pyrido[3,4-b]pyrazin-6-yl)ethan-1-one]?
A: IC50 (GPR6; procedure of Example 24): < 0.1 µM; IC50 (GPR3; procedure of Example 24): 1 to 30 µM

Q: Which IC50 (GPR6; [3]) does the source give for CC(=O)N1CCc2nc(N3CCC(Oc4ccc(F)cc4F)CC3)c(-c3cnn(CC(F)F)c3)nc2C1 [Compound 3, 1-{3-[1-(2,2-difluoroethyl)-1H-pyrazol-4-yl]-2-[4-(2,4-difluorophenoxy)piperidin-1-yl]-5H,6H,7H,8H-pyrido[3,4-b]pyrazin-6-yl}ethan-1-one] here?
A: 0.1 to 1 µM

Q: And the IC50 (GPR3; [3])?
A: 1 to 30 µM

Q: Which results are given for COCn1cc(-c2nc3c(nc2N2CCC(Oc4ccc(F)cc4F)CC2)CCN(C(C)=O)C3)cn1 [Compound 14, 1-{2-[4-(2,4-difluorophenoxy)piperidin-1-yl]-3-[1-(methoxymethyl)-1H-pyrazol-4-yl]-5H,6H,7H,8H-pyrido[3,4-b]pyrazin-6-yl}ethan-1-one]?
A: IC50 (GPR6; [3]): 0.1 to 1 µM; IC50 (GPR3; [3]): 1 to 30 µM

Q: Which results are given for CC(=O)N1CCc2nc(N3CCC(Oc4ccc(F)cc4F)CC3)c(-c3cn[nH]c3C(C)C)nc2C1 [Compound 31, 1-{2-[4-(2,4-difluorophenoxy)piperidin-1-yl]-3-[5-(propan-2-yl)-1H-pyrazol-4-yl]-5H,6H,7H,8H-pyrido[3,4-b]pyrazin-6-yl}ethan-1-one]?
A: IC50 (GPR6; [3]): 1 to 30 µM; IC50 (GPR3; [3]): 1 to 30 µM

Q: What does the source list for CC(C)(O)C(C)(O)c1cc2nc(-c3cnn(CF)c3)c(N3CCC(Oc4ccc(F)cc4F)CC3)nc2cn1 (single isomer, unassigned) [Compound 782]?
A: IC50 (GPR6; procedure of Example 24): 0.1 to 1 µM; IC50 (GPR3; procedure of Example 24): 1 to 30 µM

Q: Which IC50 (GPR6; [4]) does the source give for CC(=O)N1CCc2nc(N3CCC(Oc4ccc(F)cc4F)CC3)c(C3=CCOCC3)nc2C1 [Compound 198, 1-{2-[4-(2,4-difluorophenoxy)piperidin-1-yl]-3-(3,6-dihydro-2H-pyran-4-yl)-5H,6H,7H,8H-pyrido[3,4-b]pyrazin-6-yl}ethan-1-one] here?
A: 0.1 to 1 µM

Q: And the IC50 (GPR3; [5])?
A: 1 to 30 µM

Q: What does the source list for COCC1(Oc2ccc(F)cc2F)CCN(c2nc3ccncc3nc2-c2cn[nH]c2)CC1 [Compound 63, 2-(4-(2,4-difluorophenoxy)-4-(methoxymethyl)piperidin-1-yl)-3-(1H-pyrazol-4-yl)pyrido[3,4-b]pyrazine]?
A: IC50 (GPR6; [4]): 1 to 30 µM; IC50 (GPR3; [5]): 0.1 to 1 µM

Q: For CC(=O)N1CCc2nc(N3CCCC(Oc4ccccc4)C3)c(-c3cnn(C)c3)nc2C1 (stereo not drawn) [Compound 335, 1-[3-(1-methyl-1H-pyrazol-4-yl)-2-(3-phenoxypiperidin-1-yl)-5H,6H,7H,8H-pyrido[3,4-b]pyrazin-6-yl]ethan-1-one], which IC50 (GPR6; procedure of Example 24) is on record?
A: ≥ 30 µM

Q: And the IC50 (GPR3; procedure of Example 24)?
A: 1 to 30 µM

Q: How did the IC50 (GPR6; procedure of Example 24) turn out when CCn1cc(-c2nc3c(nc2N2CCC(Oc4ccc(F)cc4F)CC2)CCN(C#N)C3)cn1 [Compound 274, 2-(4-(2,4-difluorophenoxy)piperidin-1-yl)-3-(1-ethyl-1H-pyrazol-4-yl)-7,8-dihydropyrido[3,4-b]pyrazine-6(5H)-carbonitrile] was run?
A: < 0.1 µM

Q: And the IC50 (GPR3; procedure of Example 24)?
A: 1 to 30 µM

Q: CC(=O)Nc1cc2nc(N3CCC(Oc4ccc(F)cc4F)CC3)c(-c3cnn(C)c3)nc2cn1 [Compound 296, N-{2-[4-(2,4-difluorophenoxy)piperidin-1-yl]-3-(1-methyl-1H-pyrazol-4-yl)pyrido[3,4-b]pyrazin-7-yl}acetamide] was tested. Which IC50 (GPR6; procedure of Example 24) did it give?
A: 1 to 30 µM

Q: What about the IC50 (GPR3; procedure of Example 24) of the same compound?
A: 1 to 30 µM

Q: Which results are given for CC(=O)N1CCc2nc(N3CCC(Oc4ccc(F)cc4F)CC3)c(-c3ccc(F)c(=O)[nH]3)nc2C1 [Compound 105, 6-{6-acetyl-2-[4-(2,4-difluorophenoxy)piperidin-1-yl]-5H,6H,7H,8H-pyrido[3,4-b]pyrazin-3-yl}-3-fluoro-1,2-dihydropyridin-2-one]?
A: IC50 (GPR6; [4]): 1 to 30 µM; IC50 (GPR3; [5]): 1 to 30 µM

Q: For CCn1cc(-c2nc3c(nc2N2CCC(Oc4ccc(F)cc4F)CC2)CCN(C(=O)C2COC2)C3)cn1 [Compound 366, 4-(2,4-difluorophenoxy)-1-[3-(1-ethyl-1H-pyrazol-4-yl)-6-(oxetane-3-carbonyl)-5H,6H,7H,8H-pyrido[3,4-b]pyrazin-2-yl]piperidine], which IC50 (GPR6; procedure of Example 24) is on record?
A: 0.1 to 1 µM

Q: What about the IC50 (GPR3; procedure of Example 24) of the same compound?
A: 1 to 30 µM

Q: Which IC50 (GPR6; procedure of Example 24) does the source give for CC(C)(O)C(=O)c1cc2nc(N3CCN(Cc4ccc(F)cc4F)CC3)c(-c3cnn(C4CC4)c3)nc2cn1 [Compound 619, 1-[3-(1-cyclopropyl-4-pyrazolyl)-2-{4-[(2,4-difluorophenyl)methyl]-1-piperazinyl}-1,4,6-triaza-7-naphthyl]-2-hydroxy-2-methyl-1-propanone] here?
A: 0.1 to 1 µM

Q: And the IC50 (GPR3; procedure of Example 24)?
A: 1 to 30 µM

Q: With COC[C@](C)(O)c1cc2nc(-c3cnn(C)c3)c(N3CCC(Oc4ccc(F)cc4F)CC3)nc2cn1 (single isomer, unassigned) [Compound 689] as the compound, how does the IC50 (GPR6; procedure of Example 24) read?
A: 0.1 to 1 µM

Q: What about the IC50 (GPR3; procedure of Example 24) of the same compound?
A: 0.1 to 1 µM
